In US9199028B2, “Use of entrained neutrophils to treat metastatic and micrometastatic disease in at risk patients” (MEMORIAL SLOAN-KETTERING CANCER CENTER, priority 2010, dated 2015):
“Also recorded” adds a separate entry of the source.

Tests used:
4T1 cells [1] = experiment: In vitro killing assay: TENs co-cultured with 4T1 cells in the presence of inhibitors or TGF-β; format: cell-based, mouse; settings: for neutrophil (TEN) mediated tumour-cell killing in the presence of inhibitor: TENs + 4T1 cells overnight, Apocynin 100 μM, Catalase 1,000 u/ml, Superoxide Dismutase 1,000 u/ml, Taurine 50 mM; for TEN mediated in vitro killing of 4T1 cells in the presence of TGF-β: picomolar concentrations (up to 200 pMolar)
Text: (§1) Antibodies used for immunohistochemistry—MMP9, F4/80 and CCR2 (all from AbCam), Myeloperoxidase (Dako), Ly-6G and Cd11b (both from BD), and Cleaved Caspase 3 (Cell signalling). Antibodies used for western blotting—Actin (Sigma), CCL2 (AbCam) and CCL5 (R&D) p-SMAD2 (cell signalling). Antibodies used for FACS analysis FITC-Ly-6G, FITC-Cd11b, FITC-F4/80, FITC-Cd34 and FITC-c-Kit (all from BD) and VEGFR1-AP (R&D). Neutrophil Depletion Neutrophil depletion was achieved using daily IP injections of 12.5 μg Rat anti-Gr-1 antibody (BD) or Rat anti-Ly-6G antibody (BD) starting on day 3 post tumour engraftment. Starting on day 14, neutrophil depleting antibodies were administered twice daily. Control mice were injected with […] Rat isotype control (BD). Neutrophil depletion was monitored by manual blood differentials and FACS analysis. Flow Cytometry Peripheral blood was collected into EDTA-coated tubes, washed and resuspended in FACS buffer solution (PBS, 2% heat-inactivated FCS, 5 mM EDTA, and 0.02% sodium azide). The samples were blocked with […] and then incubated with fluorophore-conjugated antibodies. Erythrocytes were then lysed with FACS lysing solution (BD Biosciences) and the cell suspensions were analyzed on a FACSCalibur (BD Biosciences). Colony Formation Assay Female nude mice were orthotopically injected with 5×10^6 puromicin resistant 4T1 cells. On days 7 and 14 post tumour engraftment the mice were sacrificed and perfused with PBS. The lungs and livers were removed, washed with PBS and dissociated with Collagenase A (Roche). The single cell suspension was then plated onto puromicin containing media and selected for 14 day. Colonies were stained with Methylene-Blue and counted manually. Mouse Neutrophil Purification Whole blood was collected by cardiac puncture using heparinized (Sigma) syringe. The blood was diluted with 5 volumes of PBS containing 0.5% BSA and subjected to a discontinuous Histopaque (Sigma) gradient (1.077 and 1.119). Neutrophils were collected from the 1.077-1.119 interface, lymphocytes and monocytes collected from the plasma-1.077 interface. RBCs were eliminated by hypotonic lysis. The cells were washed twice with PBS-BSA and re-suspended in OptiMEM (Invitrogen) 0.5% FBS in a final concentration of 2×10^6 cells/ml. Neutrophil purity and viability were determined visually and were consistently >98%. Human Neutrophil Purification As part of a Memorial Sloan-Kettering Cancer Center institutionally approved protocol, blood samples (˜10 cc) were collected from healthy volunteers or from patients who were already having blood drawn for pre-surgical testing. Patients were consented accordingly as part of the approved protocol. […] Patients had either mastectomies or lumpectomies planned and had blood drawn prior to definitive surgical removal of their primary tumor or chemotherapy. Blood samples were transferred to the lab for analysis no more than 1 hour post-blood draw. Heparinzed blood (20 U/ml final) was mixed with an equal volume of Dextran 500 (3% in saline) and incubated 30 minutes at room temperature. The leukocyte-rich supernatant was layered on top of histopaque 1077 (Sigma) and centrifuged. Neutrophils, collected in the pellet fraction, were resuspended in 10 ml 0.2% NaCl for 30 seconds to remove contaminating erythrocytes. Isotonicity was restored by the addition of 10 ml 1.6% NaCl. Neutrophils were than washed three times in Hanks's balanced salt solution and resuspended in RPMI+FCS2%. In vitro Killing Assay Luciferase labelled cells (5,000/well) were plated on a 96-well, flat bottom white polystyrene tissue culture plate in OptiMEM 0.5% FBS (mouse neutrophils) or RPMI 2% FBS (human neutrophils). 4 hours later, purified neutrophils (100,000/well for mouse neutrophils and 5000 for human neutrophils) were added to the plated tumour cells and co-cultured overnight. […]

4T1 cells [2] = experiment: In vitro killing assay: naïve mouse neutrophils co-cultured with luciferase labelled 4T1 cells in the presence of chemokines; format: cell-based; settings: naïve mouse neutrophils co-cultured with 4T1 cells, chemokine 20 ng/ml, overnight
Text: as §1

MDA-MB-231 cells = experiment: In vitro killing assay: human neutrophils co-cultured with luciferase labelled MDA-MB-231 cells; format: cell-based; settings: naïve human neutrophils:tumor cells 1:1, chemokine 100 ng/ml (rhG-CSF 20 ng/ml), overnight
Text: Luciferase is under a constitutive promoter so cell death results in a decrease in luciferase activity because there is no transcription/translation of the lucierferase gene. The assay itself requires lysing of the cell to release the luciferase to mix with the luciferin and measure the luminescence. But it isn't that they dying cell releases luciferase. More signal means more luciferase which means more live cells. […]. […] Nave human neutrophils were co-cultured with MDA-MB-231 cells. […] Cells were seeded at a ratio of human neutrophils:human tumor cells=1:1.
as §1, with “NaCl.” for “NaCl. Neutrophils were than washed three times in Hanks's balanced salt solution and resuspended in RPMI+FCS2%. In vitro Killing Assay Luciferase labelled cells (5,000/well) were plated on a 96-well, flat bottom white polystyrene tissue culture plate in OptiMEM 0.5% FBS (mouse neutrophils) or RPMI 2% FBS (human neutrophils). 4 hours later, purified neutrophils (100,000/well for mouse neutrophils and 5000 for human neutrophils) were added to the plated tumour cells and co-cultured overnight.”

4T1 cells [3] = experiment: In vivo stimulation of neutrophils with chemokines, purified neutrophils co-cultured with 4T1 cells; format: cell-based, mouse; settings: healthy mice treated in vivo with G-CSF alone or G-CSF plus chemokine
Procedure: A. To test which chemokines may participate in the stimulation of neutrophils, neutrophils purified from healthy mice were co-culture with luciferase labeled 4T1 cells in the presence (20 ng/ml of chemokine) or absence of certain chemokines for an overnight incubation. […] B. To test which chemokines are sufficient for in vivo stimulation of neutrophils healthy mice were treated with G-CSF (to boost neutrophil numbers) and either CCL2, CCL5 or CXCL1. Control mice were treated with G-CSF alone. Neutrophils were purified from these mice and co-cultured with Luciferase-labeled 4T1 cells. […] Conclusion—CCL2 and to a lesser degree CCL5 can stimulate tumor cell killing both in vitro and in vivo.

## NCCS(=O)(=O)O [Taurine]
4T1 cells [1]
  neutrophil (TEN) mediated tumour-cell killing in the presence of inhibitor: does not inhibit tumour-cell killing
4T1 cells [1]; listed as taurine
  neutrophil (TEN) mediated tumour-cell killing in the presence of inhibitor: did not reduce tumour-cell killing

## CCL3: CC chemokine
4T1 cells [2]
  neutrophil mediated killing of 4T1 cells (tumor cell viability by luciferase activity): no significant effect on tumor-cell viability
MDA-MB-231 cells
  neutrophil cytotoxicity / neutrophil mediated killing of MDA-MB-231 cells: significantly increase neutrophil cytotoxicity

## CXCL1: CXC chemokine
4T1 cells [2]
  neutrophil mediated killing of 4T1 cells (tumor cell viability by luciferase activity): no significant effect on tumor-cell viability
4T1 cells [3]
  viability of 4T1 cells co-cultured with neutrophils purified from chemokine treated mice: did not induce a reduction in cell viability
MDA-MB-231 cells
  neutrophil cytotoxicity / neutrophil mediated killing of MDA-MB-231 cells: to a lesser extent CXCL1 significantly increase neutrophil cytotoxicity

## CXCL12: CXC chemokine
4T1 cells [2]
  neutrophil mediated killing of 4T1 cells (tumor cell viability by luciferase activity): no significant effect on tumor-cell viability
MDA-MB-231 cells
  neutrophil cytotoxicity / neutrophil mediated killing of MDA-MB-231 cells: significantly increase neutrophil cytotoxicity

## Catalase
4T1 cells [1]
  neutrophil (TEN) mediated tumour-cell killing in the presence of inhibitor: completely inhibits tumour-cell killing
4T1 cells [1]; listed as catalase
  neutrophil (TEN) mediated tumour-cell killing in the presence of inhibitor: completely inhibits cell killing

## Superoxide Dismutase
4T1 cells [1]
  neutrophil (TEN) mediated tumour-cell killing in the presence of inhibitor: does not
4T1 cells [1]; listed as superoxide dismutase
  neutrophil (TEN) mediated tumour-cell killing in the presence of inhibitor: did not inhibit cell death

## TGF-β
4T1 cells [1]
  TEN mediated in vitro killing of 4T1 cells in the presence of TGF-β: dramatic inhibitory effect
4T1 cells [1]; listed as TGF-Beta
  TEN mediated in vitro killing of 4T1 cells in the presence of TGF-β: dramatically inhibited TENs cytotoxicity towards tumour cells

## hCCL2: human CCL2 from R&D, used at 100 ng/ml
MDA-MB-231 cells
  neutrophil cytotoxicity / neutrophil mediated killing of MDA-MB-231 cells: induces neutrophil mediated cell killing; also recorded: induce the killing of human MDA-MB-231 in vitro

## hCCL5: human CCL5 from R&D, used at 100 ng/ml
MDA-MB-231 cells
  neutrophil cytotoxicity / neutrophil mediated killing of MDA-MB-231 cells: induces neutrophil mediated cell killing; also recorded: induce the killing of human MDA-MB-231 in vitro

## mCCL2: mouse CCL2 from R&D, used at 20 ng/ml
4T1 cells [2]
  neutrophil mediated killing of 4T1 cells (tumor cell viability by luciferase activity): induces neutrophil mediated cell killing; also recorded: induced tumour cell killing in vitro

B1: CXCL16: CXC chemokine (protein, UniProt Q9H2A7 30-254, looked up)
C-X-C motif chemokine 16: NEGSVTGSCYCGKRISSDSPPSVQFMNRLRKHLRAYHRCLYYTRFQLLSWSVCGGNKDPWVQELMSCLDLKECGHAYSGIVAHQKHLLPTSPPISQASEGASSDIHTPAQMLLSTLQSTQRPTLPVGSLSSDKELTRPNETTIHTAGHSLAAGPEAGENQKQPEKNAGPTARTSATVPVLCLLAIIFILTAALSYVLCKRRRGQSPQSSPDLPVHYIPVAPDSNT
4T1 cells [2]
  neutrophil mediated killing of 4T1 cells (tumor cell viability by luciferase activity): significant reduction in tumor cell viability
MDA-MB-231 cells
  neutrophil cytotoxicity / neutrophil mediated killing of MDA-MB-231 cells: significantly increase neutrophil cytotoxicity

B2: CCL4: CC chemokine (protein, UniProt P13236 24-92, looked up)
C-C motif chemokine 4: APMGSDPPTACCFSYTARKLPRNFVVDYYETSSLCSQPAVVFQTKRSKQVCADPSESWVQEYVYDLELN
4T1 cells [2]
  neutrophil mediated killing of 4T1 cells (tumor cell viability by luciferase activity): significant reduction in tumor cell viability
MDA-MB-231 cells
  neutrophil cytotoxicity / neutrophil mediated killing of MDA-MB-231 cells: but not CCL4 significantly increase neutrophil cytotoxicity
